In patent EP4806898A1, “HETEROARYL DERIVATIVE COMPOUND AND USE THEREOF” (Voronoi Inc., priority 2023, dated 2025):

Key:
recombinant USP1 protein = biological target: T1, recombinant USP1 protein (Homo sapiens, UniProt O94782, DEL125-138/DEL229-408/DEL608-737); experiment: Binding affinity to recombinant USP1 protein by differential scanning fluorimetry; conditions: compound 100 µM; 0.03 mg/mL USP1 (Δ1-66, Δ125-138, Δ229-408, Δ608-737); Tm with compound minus Tm with DMSO; read-out: ΔTm (°C)
T1 sequence (O94782 with tags, fused parts or gaps DEL125-138/DEL229-408/DEL608-737): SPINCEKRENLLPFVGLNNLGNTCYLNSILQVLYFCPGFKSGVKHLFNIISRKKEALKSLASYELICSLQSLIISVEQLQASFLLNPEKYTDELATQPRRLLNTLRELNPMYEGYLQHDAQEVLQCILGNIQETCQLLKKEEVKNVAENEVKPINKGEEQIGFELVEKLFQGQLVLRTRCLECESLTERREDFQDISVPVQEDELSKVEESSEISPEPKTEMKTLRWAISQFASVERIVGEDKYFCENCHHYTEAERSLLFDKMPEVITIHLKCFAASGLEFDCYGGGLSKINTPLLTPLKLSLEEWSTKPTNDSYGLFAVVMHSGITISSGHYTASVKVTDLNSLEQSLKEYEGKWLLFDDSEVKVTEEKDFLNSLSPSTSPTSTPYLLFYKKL
In short: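 USP1 (Δ1-66, Δ125-138, Δ229-408, Δ608-737) at 0.03 mg/mL with dye in 50 mM Tris-HCl pH 8.0, 150 mM NaCl, 2% glycerol, 1 mM DTT; compounds at 100 µM final. Tm read on real-time PCR instrument; ΔTm = Tm with compound minus Tm with DMSO.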

UWB1.289 cells = experiment: Cell proliferation inhibitory activity in BRCA1/2-mutant or HRD-positive cells (Cell Titer-Glo); type: cell-based; conditions: UWB1289; UWB1.289 cells, 144 hours after compound treatment, Cell Titer-Glo, 1.5 nM to 10 µM; read-out: GI50 UWB1.289 BRCA1 mut
In short: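 UWB1.289 cells (1,000/well) in 50% MEBM/50% RPMI1640 exposed to […], final 1.5 nM to 10 µM, for 144 h at 37 °C. Viable cells measured by CellTiter-Glo luminescence; GI50 calculated.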

| Compound | ΔTm at 100 µM (recombinant USP1 protein) [°C] | GI50 (UWB1.289 cells) [nM] |
| --- | --- | --- |
| COc1ncnc(C2CC2)c1-c1ncc2cc(C(=O)N[C@@H]3CN(C)C[C@H]3F)n(Cc3ccc(-c4nc(C(F)(F)F)cn4C)cc3)c2n1 [Example 218, 2-(4-cyclopropyl-6-methoxypyrimidin-5-yl) -N-((3R,4R)-4-fluoro-1-methylpyrrolidin-3-yl)-7-(4-(1-methyl-4-(trifluoromethyl)-1H-imidazol-2-yl)benzyl)-7H-pyrrolo[2,3-d]pyrimidine-6-carboxamide] | > 5 | < 100 |
| COc1ncnc(C2CC2)c1-c1ncc2cc(C(=O)N[C@@H]3CCN(C)C[C@@H]3F)n(Cc3ccc(-c4nc(C(F)(F)F)cn4C(C)C)cc3)c2n1 [Example 219, 2-(4-cyclopropyl-6-methoxypyrimidin-5-yl)-N-((3S,4R)-3-fluoro-1-methylpiperidin-4-yl)-7-(4-(1-isopropyl-4-(trifluoromethyl)-1H-imidazol-2-yl)benzyl)-7H-pyrrolo[2,3-d]pyrimidine-6-carboxamide] | > 5 | < 100 |
| COc1ncnc(C2CC2)c1-c1ncc2cc(C(=O)N[C@H]3CN(C)C[C@H]3F)n(Cc3ccc(-c4nc(C(F)(F)F)cn4C(C)C)cc3)c2n1 [Example 220, 2-(4-cyclopropyl-6-methoxypyrimidin-5-yl)-N-((3S,4R)-4-fluoro-1-methylpyrrolidin-3-yl)-7-(4-(1-isopropyl-4-(trifluoromethyl)-1H-imidazol-2-yl)benzyl)-7H-pyrrolo[2,3-d]pyrimidine-6-carboxamide] | > 5 | < 100 |
| COc1ncnc(C2CC2)c1-c1ncc2cc(C(=O)N[C@@H]3CCN(C(C)C)C[C@@H]3F)n(Cc3ccc(-c4nc(C(F)(F)F)cn4C)cc3)c2n1 [Example 221, 2-(4-cyclopropyl-6-methoxypyrimidin-5-yl)-N-((3S,4R)-3-fluoro-1-isopropylpiperidin-4-yl)-7-(4-(1-methyl-4-(trifluoromethyl)-1H-imidazol-2-yl)benzyl)-7H-pyrrolo[2,3-d]pyrimidine-6-carboxamide] | > 5 | < 100 |
